Data from PMC7692329, “Inhibitory Effect of AB-PINACA, Indazole Carboxamide Synthetic Cannabinoid, on Human Major Drug-Metabolizing Enzymes and Transporters” (Pharmaceutics, 2020).
Read-outs that look alike come from different tables or passages of the source.

Columns and labels:
OCT1 = target: T1, OCT1 (Homo sapiens, UniProt O15245); experiment: OCT1-mediated methyl-4-phenylpyridinium uptake in HEK293-OCT1 cells; type: in vitro ADME
T1 construct: host or cells: HEK293
T1 sequence (O15245 1-554): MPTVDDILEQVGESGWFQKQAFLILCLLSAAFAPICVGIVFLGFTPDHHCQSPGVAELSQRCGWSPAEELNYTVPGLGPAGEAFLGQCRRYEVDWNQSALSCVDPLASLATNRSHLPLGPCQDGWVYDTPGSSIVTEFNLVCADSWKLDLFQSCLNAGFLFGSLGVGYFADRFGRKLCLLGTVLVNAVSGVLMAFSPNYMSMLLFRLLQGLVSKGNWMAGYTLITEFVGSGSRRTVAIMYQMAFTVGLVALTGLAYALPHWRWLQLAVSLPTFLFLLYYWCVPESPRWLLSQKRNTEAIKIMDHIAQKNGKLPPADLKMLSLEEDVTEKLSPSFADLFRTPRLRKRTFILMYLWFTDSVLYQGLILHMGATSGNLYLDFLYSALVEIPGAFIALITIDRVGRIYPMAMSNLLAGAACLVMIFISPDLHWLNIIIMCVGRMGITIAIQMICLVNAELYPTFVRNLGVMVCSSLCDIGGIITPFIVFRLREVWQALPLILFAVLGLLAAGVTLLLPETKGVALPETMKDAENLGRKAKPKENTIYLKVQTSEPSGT

OCT2 = target: T2, OCT2 (Homo sapiens, UniProt O15244); experiment: OCT2-mediated methyl-4-phenylpyridinium uptake in HEK293-OCT2 cells; type: in vitro ADME
T2 construct: host or cells: HEK293

OAT1 = target: T3, OAT1 (Homo sapiens, UniProt Q4U2R8); experiment: OAT1-mediated para-aminohippuric acid uptake in HEK293-OAT1 cells; type: in vitro ADME
T3 construct: host or cells: HEK293

OATP1B1 = target: T4, OATP1B1 (Homo sapiens, UniProt Q9Y6L6); experiment: OATP1B1-mediated estrone-3-sulfate uptake in HEK293-OATP1B1 cells; type: in vitro ADME
T4 construct: host or cells: HEK293

OATP1B3 = target: T5, OATP1B3 (Homo sapiens, UniProt Q9NPD5); experiment: OATP1B3-mediated estradiol-17β-D-glucuronide uptake in HEK293-OATP1B3 cells; type: in vitro ADME
T5 construct: host or cells: HEK293

P-gp = target: T6, P-gp (Homo sapiens, UniProt P08183); experiment: P-gp-mediated B to A transport of digoxin in LLC-PK1-MDR1 cells; type: in vitro ADME
T6 construct: host or cells: LLC-PK1

[1] = tested on: human cannabinoid receptor type 1 (hCB1); settings: cited from earlier work
[2] = tested on: human cannabinoid receptor type 2 (hCB2); settings: cited from earlier work
[3] = design: method as in PMID 26105953; settings: cited from earlier work
[4] = 25 of 58 cases; dose regimen not specified; cited from earlier work
[5] = child, chewing an AB-PINACA contaminated cigarette; cited from earlier work
CYP2B6 = CYP2B6 (Homo sapiens, UniProt P20813); experiment: CYP2B6 bupropion hydroxylase inhibition in ultrapooled human liver microsomes
UGT1A1 = UGT1A1 (Homo sapiens, UniProt P22309); experiment: UGT1A1 SN-38 glucuronidation inhibition in ultrapooled human liver microsomes
CYP2A6 = CYP2A6 (Homo sapiens, UniProt P11509); experiment: CYP2A6 coumarin 7-hydroxylase inhibition in ultrapooled human liver microsomes
CYP1A2 = CYP1A2 (Homo sapiens, UniProt P05177); experiment: CYP1A2 phenacetin O-deethylase inhibition in ultrapooled human liver microsomes
CYP2D6 = CYP2D6 (Homo sapiens, UniProt P10635); experiment: CYP2D6 bufuralol 1'-hydroxylase inhibition in ultrapooled human liver microsomes
CYP2C9 = CYP2C9 (Homo sapiens, UniProt P11712); experiment: CYP2C9 diclofenac 4'-hydroxylase inhibition in ultrapooled human liver microsomes; settings: for IC50: CYP2C9 diclofenac 4'-hydroxylase, ultrapooled human liver microsomes
UGT2B7 = UGT2B7 (Homo sapiens, UniProt P16662); experiment: UGT2B7 naloxone 3-β-D-glucuronidation inhibition in ultrapooled human liver microsomes
CYP2C19 = CYP2C19 (Homo sapiens, UniProt P33261); experiment: CYP2C19 [S]-mephenytoin 4'-hydroxylase inhibition in ultrapooled human liver microsomes; settings: for IC50: CYP2C19 [S]-mephenytoin 4'-hydroxylase, ultrapooled human liver microsomes
UGT1A4 = UGT1A4 (Homo sapiens, UniProt P22310); experiment: UGT1A4 trifluoperazine N-glucuronidation inhibition in ultrapooled human liver microsomes
UGT1A9 = UGT1A9 (Homo sapiens, UniProt O60656); experiment: UGT1A9 mycophenolic acid glucuronidation inhibition in ultrapooled human liver microsomes
CYP3A4 = CYP3A4 (Homo sapiens, UniProt P08684); experiment: CYP3A4 midazolam 1'-hydroxylase inhibition and inactivation kinetics in ultrapooled human liver microsomes; settings: for IC50: CYP3A4 midazolam 1'-hydroxylase, ultrapooled human liver microsomes
[6] = IC50 With NADPH Preincubation, 30-min preincubation with NADPH
[7] = IC50 Without NADPH Preincubation, without NADPH preincubation
[8] = human, liver microsomes, pH 7.4, probe midazolam

Sequence of CYP2C19 (P33261 whole entry): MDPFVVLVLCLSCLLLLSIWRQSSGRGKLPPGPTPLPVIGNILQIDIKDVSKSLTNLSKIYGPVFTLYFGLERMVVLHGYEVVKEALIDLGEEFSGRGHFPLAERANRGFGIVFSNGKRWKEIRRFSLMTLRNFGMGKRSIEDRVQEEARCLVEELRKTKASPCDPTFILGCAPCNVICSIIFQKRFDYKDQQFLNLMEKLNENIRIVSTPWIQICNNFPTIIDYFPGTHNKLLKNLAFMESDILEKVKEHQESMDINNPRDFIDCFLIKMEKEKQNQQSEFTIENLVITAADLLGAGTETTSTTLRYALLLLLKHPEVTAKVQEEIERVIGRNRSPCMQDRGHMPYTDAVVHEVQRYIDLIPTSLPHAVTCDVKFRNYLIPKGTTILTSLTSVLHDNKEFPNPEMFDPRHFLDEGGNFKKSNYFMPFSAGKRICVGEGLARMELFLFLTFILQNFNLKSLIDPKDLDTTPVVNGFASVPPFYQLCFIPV
Sequence of CYP3A4 (P08684 whole entry): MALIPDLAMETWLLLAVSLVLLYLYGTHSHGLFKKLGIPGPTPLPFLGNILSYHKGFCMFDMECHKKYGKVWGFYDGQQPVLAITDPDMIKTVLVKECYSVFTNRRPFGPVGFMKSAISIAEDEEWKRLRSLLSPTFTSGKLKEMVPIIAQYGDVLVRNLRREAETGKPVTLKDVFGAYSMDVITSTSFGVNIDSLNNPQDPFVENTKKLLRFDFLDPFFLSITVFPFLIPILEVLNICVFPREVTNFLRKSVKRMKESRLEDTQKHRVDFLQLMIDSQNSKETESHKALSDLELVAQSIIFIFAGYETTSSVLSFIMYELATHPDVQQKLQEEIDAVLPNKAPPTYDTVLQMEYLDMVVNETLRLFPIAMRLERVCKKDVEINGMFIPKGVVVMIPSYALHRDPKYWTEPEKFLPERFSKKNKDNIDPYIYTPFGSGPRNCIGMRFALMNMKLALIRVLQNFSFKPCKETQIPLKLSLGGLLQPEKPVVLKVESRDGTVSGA
Sequence of CYP2C9 (P11712 whole entry): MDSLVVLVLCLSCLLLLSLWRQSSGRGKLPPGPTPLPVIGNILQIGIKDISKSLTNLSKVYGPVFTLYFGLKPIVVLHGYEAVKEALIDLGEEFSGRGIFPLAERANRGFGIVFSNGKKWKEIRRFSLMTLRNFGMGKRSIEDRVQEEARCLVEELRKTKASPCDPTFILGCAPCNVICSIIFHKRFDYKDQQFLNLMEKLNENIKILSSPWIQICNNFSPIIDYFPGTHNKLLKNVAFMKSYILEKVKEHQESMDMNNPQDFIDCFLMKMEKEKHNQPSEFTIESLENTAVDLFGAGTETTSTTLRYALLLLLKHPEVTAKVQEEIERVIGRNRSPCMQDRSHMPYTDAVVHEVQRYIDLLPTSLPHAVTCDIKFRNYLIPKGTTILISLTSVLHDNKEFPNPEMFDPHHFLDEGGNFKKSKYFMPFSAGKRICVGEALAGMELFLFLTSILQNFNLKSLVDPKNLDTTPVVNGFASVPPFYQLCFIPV
Sequence of CYP2B6 (P20813 whole entry): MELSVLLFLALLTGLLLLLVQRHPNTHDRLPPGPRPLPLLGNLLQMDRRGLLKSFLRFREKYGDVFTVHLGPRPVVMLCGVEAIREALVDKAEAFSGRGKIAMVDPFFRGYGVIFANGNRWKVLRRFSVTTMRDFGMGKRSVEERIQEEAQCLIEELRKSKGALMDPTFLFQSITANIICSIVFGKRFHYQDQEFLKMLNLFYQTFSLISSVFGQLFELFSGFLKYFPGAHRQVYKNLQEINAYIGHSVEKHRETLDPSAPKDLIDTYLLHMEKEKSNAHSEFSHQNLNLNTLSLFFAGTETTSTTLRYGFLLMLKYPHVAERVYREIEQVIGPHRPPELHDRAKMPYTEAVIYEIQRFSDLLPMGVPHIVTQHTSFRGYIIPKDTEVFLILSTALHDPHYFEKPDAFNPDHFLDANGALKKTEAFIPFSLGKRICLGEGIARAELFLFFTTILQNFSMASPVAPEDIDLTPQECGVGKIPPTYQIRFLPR
Sequence of CYP2A6 (P11509 whole entry): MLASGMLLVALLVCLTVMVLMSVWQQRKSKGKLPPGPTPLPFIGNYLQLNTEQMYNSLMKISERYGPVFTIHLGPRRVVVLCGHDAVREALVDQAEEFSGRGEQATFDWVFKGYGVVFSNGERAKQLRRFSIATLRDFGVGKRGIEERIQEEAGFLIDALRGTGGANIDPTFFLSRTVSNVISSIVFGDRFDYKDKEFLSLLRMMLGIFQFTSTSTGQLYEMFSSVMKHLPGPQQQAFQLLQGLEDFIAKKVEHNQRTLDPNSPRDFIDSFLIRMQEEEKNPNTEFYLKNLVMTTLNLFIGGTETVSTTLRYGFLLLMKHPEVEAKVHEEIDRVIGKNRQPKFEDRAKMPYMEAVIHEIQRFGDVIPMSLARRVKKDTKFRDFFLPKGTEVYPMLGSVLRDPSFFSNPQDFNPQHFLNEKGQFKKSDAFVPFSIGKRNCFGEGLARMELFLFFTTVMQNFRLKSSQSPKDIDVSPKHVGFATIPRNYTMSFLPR
Sequence of CYP2D6 (P10635 whole entry): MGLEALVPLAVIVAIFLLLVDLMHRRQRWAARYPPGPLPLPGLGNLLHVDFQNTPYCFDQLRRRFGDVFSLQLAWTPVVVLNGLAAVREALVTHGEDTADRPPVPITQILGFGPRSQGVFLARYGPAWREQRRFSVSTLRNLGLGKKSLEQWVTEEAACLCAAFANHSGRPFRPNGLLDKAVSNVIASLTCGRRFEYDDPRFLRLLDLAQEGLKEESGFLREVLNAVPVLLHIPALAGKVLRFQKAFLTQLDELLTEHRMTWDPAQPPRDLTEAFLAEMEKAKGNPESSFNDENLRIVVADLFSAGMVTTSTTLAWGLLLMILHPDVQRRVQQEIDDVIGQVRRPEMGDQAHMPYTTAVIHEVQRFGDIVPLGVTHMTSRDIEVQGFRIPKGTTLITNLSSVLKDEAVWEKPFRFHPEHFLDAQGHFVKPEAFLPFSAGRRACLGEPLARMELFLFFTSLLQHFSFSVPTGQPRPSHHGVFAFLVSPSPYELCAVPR
Sequence of CYP1A2 (P05177 whole entry): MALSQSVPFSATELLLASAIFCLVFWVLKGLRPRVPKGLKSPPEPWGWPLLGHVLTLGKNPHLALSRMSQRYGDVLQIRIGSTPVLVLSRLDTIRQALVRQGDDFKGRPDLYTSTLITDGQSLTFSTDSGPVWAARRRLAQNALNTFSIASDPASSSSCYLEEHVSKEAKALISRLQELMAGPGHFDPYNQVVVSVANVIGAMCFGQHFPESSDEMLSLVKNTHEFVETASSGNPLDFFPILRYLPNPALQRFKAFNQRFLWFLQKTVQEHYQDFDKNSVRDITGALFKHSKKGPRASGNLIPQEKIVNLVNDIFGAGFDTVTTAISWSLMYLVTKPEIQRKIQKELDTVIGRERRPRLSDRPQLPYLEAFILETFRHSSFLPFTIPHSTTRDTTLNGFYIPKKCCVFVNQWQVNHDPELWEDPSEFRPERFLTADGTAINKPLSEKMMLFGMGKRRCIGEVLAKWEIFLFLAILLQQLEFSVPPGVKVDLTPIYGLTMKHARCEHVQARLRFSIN
T6 sequence (P08183 whole entry): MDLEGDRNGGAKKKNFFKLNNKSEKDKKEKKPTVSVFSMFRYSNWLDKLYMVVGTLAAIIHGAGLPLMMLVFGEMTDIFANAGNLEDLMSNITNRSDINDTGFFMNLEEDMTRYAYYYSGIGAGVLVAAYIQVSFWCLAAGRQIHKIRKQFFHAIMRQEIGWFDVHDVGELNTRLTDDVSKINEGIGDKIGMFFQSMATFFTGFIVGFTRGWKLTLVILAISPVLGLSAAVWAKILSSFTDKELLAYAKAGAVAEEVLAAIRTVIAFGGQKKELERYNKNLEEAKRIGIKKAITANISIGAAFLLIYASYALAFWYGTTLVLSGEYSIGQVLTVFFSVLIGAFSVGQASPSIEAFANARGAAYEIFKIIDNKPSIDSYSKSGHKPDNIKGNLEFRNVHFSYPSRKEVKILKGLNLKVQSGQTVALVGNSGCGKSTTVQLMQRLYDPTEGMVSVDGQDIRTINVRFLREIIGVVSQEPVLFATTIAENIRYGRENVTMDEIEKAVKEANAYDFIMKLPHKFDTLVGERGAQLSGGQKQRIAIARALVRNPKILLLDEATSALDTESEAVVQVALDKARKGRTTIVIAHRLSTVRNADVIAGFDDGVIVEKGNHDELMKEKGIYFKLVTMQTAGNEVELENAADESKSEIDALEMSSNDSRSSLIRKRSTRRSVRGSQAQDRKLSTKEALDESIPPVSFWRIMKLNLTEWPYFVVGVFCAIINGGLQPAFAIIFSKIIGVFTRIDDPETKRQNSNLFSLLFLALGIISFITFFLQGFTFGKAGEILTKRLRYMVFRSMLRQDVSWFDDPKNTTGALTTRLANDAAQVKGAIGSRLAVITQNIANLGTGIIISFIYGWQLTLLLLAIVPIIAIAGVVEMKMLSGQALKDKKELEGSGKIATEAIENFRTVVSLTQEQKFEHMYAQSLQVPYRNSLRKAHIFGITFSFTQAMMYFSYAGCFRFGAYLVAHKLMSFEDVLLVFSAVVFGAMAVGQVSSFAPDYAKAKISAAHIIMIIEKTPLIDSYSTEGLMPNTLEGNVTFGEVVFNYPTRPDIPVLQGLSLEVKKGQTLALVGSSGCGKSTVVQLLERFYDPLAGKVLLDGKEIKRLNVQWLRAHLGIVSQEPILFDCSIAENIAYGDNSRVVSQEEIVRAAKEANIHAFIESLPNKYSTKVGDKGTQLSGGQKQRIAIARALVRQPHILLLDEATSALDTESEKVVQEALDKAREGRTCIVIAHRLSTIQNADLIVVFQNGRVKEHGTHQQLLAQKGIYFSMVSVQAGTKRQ

In the case of `CCCCCn1nc(C(=O)N[C@H](C(N)=O)C(C)C)c2ccccc21` [AB-PINACA, N-[(2S)-1-amino-3-methyl-1-oxobutan-2-yl]-1-pentyl-1H-indazole-3-carboxamide], the IC50 (OCT1) is reported as 136 µM, the Ki (OCT1) is reported as 146 µM and the “Mode of Inhibition, OCT1” value (OCT1; methyl-4-phenylpyridinium uptake, HEK293-OCT1 cells) is reported as “mixed mode of inhibition”. It also gave an IC50 (OCT2) of over 250 µM, an IC50 (OAT1) of over 250 µM and an IC50 (OATP1B1) of over 250 µM. For the same molecule, the IC50 (OATP1B3) was over 250 µM, the IC50 (P-gp) was over 100 µM and the “fold higher in vitro binding affinity to hCB1 compared with Δ9-THC” value [1] was 23.3 fold. The Ki ([1]; read-out: receptor binding affinity to hCB1 (Ki)) was 0.00287 µM, the “fold higher in vitro binding affinity to hCB2 compared with Δ9-THC” value [2] was 40.9 fold and the Ki ([2]; read-out: receptor binding affinity to hCB2 (Ki)) was 0.00088 µM. For the same molecule, the “substitution for Δ9-THC” value [3] was “substituted fully and dose dependently”, the “blood (plasma) concentration in suspected impaired driving cases” value [4] was 1.8 to 127 nM and the serum level [5] was 42 ng/mL. The IC50 (CYP2B6) was over 100 µM, the IC50 (CYP2B6; read-out: IC50 With NADPH Preincubation, CYP2B6 bupropion hydroxylase, ultrapooled human liver microsomes, 30-min preincubation with NADPH) was over 100 µM and the IC50 (UGT1A1) was over 100 µM. The IC50 (CYP2A6) was over 100 µM, the IC50 (CYP2A6; read-out: IC50 Without NADPH Preincubation, CYP2A6 coumarin 7-hydroxylase, ultrapooled human liver microsomes, without NADPH preincubation) was over 100 µM and the IC50 (CYP1A2) was over 100 µM. The IC50 (CYP1A2; read-out: IC50 With NADPH Preincubation, CYP1A2 phenacetin O-deethylase, ultrapooled human liver microsomes, 30-min preincubation with NADPH) was over 100 µM, the IC50 (CYP2D6) was over 100 µM and the IC50 (CYP2D6; read-out: IC50 With NADPH Preincubation, CYP2D6 bufuralol 1'-hydroxylase, ultrapooled human liver microsomes, 30-min preincubation with NADPH) was over 100 µM. It also gave an IC50 (CYP2C9; [6]) of 19.3 µM, an IC50 (CYP2C9; [7]) of 17.4 µM and a Ki (CYP2C9; Ki, CYP2C9, diclofenac 4'-hydroxylation, human liver microsomes, Lineweaver–Burk and Dixon plots) of 16.1 µM. It also gave an IC50 shift at 15 min (CYP2C9; human, liver microsomes, pH 7.4, probe diclofenac) of 0.9, an IC50 (UGT2B7) of over 100 µM and an IC50 (CYP2C19; [6]) of 23 µM. For the same molecule, the IC50 (CYP2C19; [7]) was 20 µM, the Ki (CYP2C19; Ki, CYP2C19, [S]-mephenytoin 4'-hydroxylation, human liver microsomes, Lineweaver–Burk and Dixon plots) was 6.7 µM and the IC50 shift at 15 min (CYP2C19; human, liver microsomes, pH 7.4, probe [S]-mephenytoin) was 0.9. It also gave an IC50 (UGT1A4) of over 100 µM, an IC50 (UGT1A9) of 65.2 µM and a Ki (CYP3A4) of 17.6 µM. For the same molecule, the IC50 (CYP3A4; [6]) was 24.4 µM, the IC50 (CYP3A4; [7]) was 66.4 µM and the IC50 shift at 15 min (CYP3A4; [8]) was 2.7. For the same molecule, the kinact (CYP3A4; [8]) was 0.000674 s⁻¹ and the “Mode of Inhibition, CYP3A4” value (CYP3A4; midazolam 1'-hydroxylation, human liver microsomes) was “time-dependent inhibition”.
